From US20250042886A1, “BIS(HETERO)ARYL THIOETHER OXADIAZINES AS FUNGICIDAL COMPOUNDS” (Bayer Aktiengesellschaft, priority 2021, published 2025)

What was measured:
[1] = Measurement of Log P values by HPLC on reversed phase columns (EEC directive 79/831 Annex V.A8); type: physicochemical; conditions: Table 1, compounds of formula (I); method [a]: LC-UV, acidic range, 0.1% formic acid in water and acetonitrile
Alternaria alternata = Alternaria alternata in vitro cell test; type: cell-based; conditions: 120 h, liquid culture, 5 days incubation, read-out: efficacy (inhibition of fungal growth); for inhibition at 20 ppm: 20 ppm of active ingredient; for inhibition at 50 µM: 50 μMol/l of active ingredient
Experimental: B-5. Alternaria alternata In Vitro Cell Test • Solvent: DMSO • Culture medium: 14.6 g anhydrous D-glucose (VWR), 7.1 g Mycological Peptone (Oxoid), 1.4 g granulated Yeast Extract (Merck), QSP 1 liter • Inoculum: spores suspension Fungicides were solubilized in DMSO and the solution used to prepare the required range of concentrations. […] A spore suspension of A. alternata was prepared and diluted to the desired spore density. Fungicides were evaluated for their ability to inhibit spore germination and mycelium growth in liquid culture assay. The compounds were added in the desired concentration to the culture medium with spores. After 5 days incubation, fungi-toxicity of compounds was determined by spectrometric measurement of mycelium growth. Inhibition of fungal growth was determined by comparing the absorbance values in wells containing the fungicides with the absorbance in control wells without fungicides.

Pyricularia oryzae = test: microbe, parasite or virus in culture; type: cell-based; conditions: 120 h; for inhibition at 20 ppm: read-out: efficacy (inhibition of fungal growth), 20 ppm of active ingredient, liquid culture, 5 days incubation; for inhibition at 50 µM: read-out: efficacy (inhibition of fungal growth), 50 μMol/l of active ingredient, liquid culture, 5 days incubation
[2] = system: Colletotrichum lindemuthianum; test: Colletotrichum lindemuthianum in vitro cell test; type: cell-based; conditions: 144 h, liquid culture, 6 days incubation, read-out: efficacy (inhibition of fungal growth); for inhibition at 20 ppm: 20 ppm of active ingredient; for inhibition at 50 µM: 50 μMol/l of active ingredient
Method in brief: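 C. lindemuthianum spores in liquid glucose–peptone–yeast extract medium were exposed to compounds dissolved in DMSO. After 6 days, mycelial growth was measured by absorbance, and inhibition was calculated against compound-free control wells.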

Pyrenophora teres = Pyrenophora teres in vitro cell test; type: cell-based; conditions: 144 h, liquid culture, 6 days incubation, read-out: efficacy (inhibition of fungal growth); for inhibition at 20 ppm: 20 ppm of active ingredient; for inhibition at 50 µM: 50 μMol/l of active ingredient
Method in brief: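 Compounds in DMSO were added to P. teres spore suspensions in glucose/peptone/yeast-extract liquid medium, testing inhibition of spore germination and mycelium growth. After 6 days, mycelium growth was read by absorbance. Inhibition was calculated relative to fungicide-free control wells.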

Botrytis cinerea [3] = test: Botrytis cinerea in vitro cell test; type: cell-based; conditions: 144 h, liquid culture, 6 days incubation, read-out: efficacy (inhibition of fungal growth); for inhibition at 20 ppm: 20 ppm of active ingredient; for inhibition at 50 µM: 50 μMol/l of active ingredient
Method in brief: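 Compounds from DMSO stocks added at a range of concentrations to a defined mineral-salt/sucrose liquid medium inoculated with B. cinerea spores. After 6 days' incubation, mycelium growth was read by absorbance; inhibition of germination and growth was calculated against fungicide-free control wells.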

Fusarium culmorum = Fusarium culmorum in vitro cell test; type: cell-based; conditions: 120 h, liquid culture, 5 days incubation, read-out: efficacy (inhibition of fungal growth); for inhibition at 20 ppm: 20 ppm of active ingredient; for inhibition at 50 µM: 50 μMol/l of active ingredient
Method in brief: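 Spores in liquid mineral-salts/saccharose medium exposed to compounds (DMSO ≤1% final) for 5 days. Mycelium growth measured spectrometrically, with inhibition derived from absorbance relative to fungicide-free control wells.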

Septoria tritici = Septoria tritici in vitro cell test; type: cell-based; conditions: Zymoseptoria tritici, 168 h; 20 ppm of active ingredient; liquid culture, 7 days incubation; read-out: efficacy (inhibition of fungal growth)
Experimental: B-11. Septoria tritici In Vitro Cell Test • Solvent: DMSO • Culture medium: 1 g KH2PO4 (VWR), 1 g K2HPO4 (VWR), 0.5 g Urea (VWR), 3 g KNO3 (Prolabo), 10 g saccharose (VWR), 0.5 g MgSO4, 7H2O (Sigma), 0.07 g CaCl2, 2H2O (Prolabo), 0.2 mg MnSO4, H2O (Sigma), 0.6 mg CuSO4, 5H2O (Sigma), 7.9 mg ZnSO4, 7H2O (Sigma), 0.1 mg H3BO3 (Merck), 0.14 mg NaMoO4, 2H2O (Sigma), 2 mg thiamine (Sigma), 0.1 mg biotine (VWR), 4 mg FeSO4, 7H2O (Sigma), QSP 1 liter • Inoculum: spore suspension Fungicides were solubilized in DMSO and the solution used to prepare the required range of concentrations. […] A spore suspension of S. tritici was prepared and diluted to the desired spore density. Fungicides were evaluated for their ability to inhibit spore germination and mycelium growth in liquid culture assay. The compounds were added in the desired concentration to the culture medium with spores. […] Inhibition of fungal growth was determined by comparing the absorbance values in wells containing the fungicides with the absorbance in control wells without fungicides.

Alternaria brassicae = test: In vivo preventive test on Alternaria brassicae (leaf spot on radish or cabbage); conditions: 500 ppm of active ingredient, sprayed on young radish or cabbage plants 24 h before inoculation, evaluated 3 to 4 days after inoculation, read-out: efficacy
Experimental: (§1) B-1. […] The active ingredients were made soluble and homogenized in a mixture of Dimethyl sulfoxide/Acetone//Tween® 80 and then diluted in water to the desired concentration. The young plants of radish or cabbage were treated by spraying the active ingredient prepared as described above. Control plants were treated only with an aqueous solution of Acetone/Dimethyl sulfoxide/Tween® 80. After 24 hours, the plants were contaminated by spraying the leaves with an aqueous suspension of Alternaria brassicae spores.

Botrytis cinerea [4] = test: In vivo preventive test on Botrytis cinerea (grey mould); conditions: 500 ppm of active ingredient, sprayed on young gherkin or cabbage plants 24 h before inoculation, evaluated 4 to 5 days after inoculation, read-out: efficacy
Method in brief: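 Compounds in DMSO/acetone/Tween 80 were diluted in water and sprayed onto young gherkin or cabbage plants; controls got solvent only. After 24 h, leaves were sprayed with an aqueous Botrytis cinerea spore suspension.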

[5] = system: Colletotrichum lindemuthianum; test: In vivo preventive test on Colletotrichum lindemuthianum (leaf spot on bean); conditions: 168 h, 500 ppm of active ingredient, sprayed on young bean plants 24 h before inoculation, evaluated 7 days after inoculation, read-out: efficacy
Experimental: as §1, with “B-4.” for “B-1.”, “bean” for “radish or cabbage”, “Colletotrichum lindemuthianum” for “Alternaria brassicae”

SMILES	chromatographic logP [1]	inhibition at 20 ppm (Alternaria alternata) [%]	inhibition at 20 ppm (Pyricularia oryzae) [%]	inhibition at 20 ppm [2] [%]	inhibition at 20 ppm (Pyrenophora teres) [%]	inhibition at 20 ppm (Botrytis cinerea [3]) [%]	inhibition at 20 ppm (Fusarium culmorum) [%]	inhibition at 20 ppm (Septoria tritici) [%]	pest or weed control at 500 ppm (Alternaria brassicae) [%]	pest or weed control at 500 ppm (Botrytis cinerea [4]) [%]	pest or weed control at 500 ppm [5] [%]	inhibition at 50 µM (Alternaria alternata) [%]	inhibition at 50 µM (Pyricularia oryzae) [%]	inhibition at 50 µM [2] [%]	inhibition at 50 µM (Pyrenophora teres) [%]	inhibition at 50 µM (Botrytis cinerea [3]) [%]	inhibition at 50 µM (Fusarium culmorum) [%]
Clc1cccc(Sc2cnc(Cl)cc2C2=NOC[C@@H](Cc3ccc(Cl)cc3Cl)N2)c1 (racemic) [Compound I-008]	4.9	80 to 89	90 to 100	90 to 100	90 to 100	90 to 100	90 to 100	90 to 100	–	–	–	–	–	–	–	–	–
COc1cccc(Sc2cnc(C)nc2C2=NOC[C@H](Cc3ccc(C)cc3C)N2)c1 (racemic) [Compound I-009]	4.67	–	–	80 to 89	–	90 to 100	–	70 to 79	80 to 89	80 to 89	70 to 79	–	–	–	–	–	–
Cc1cccc(Sc2cnc(Cl)cc2C2=NOC[C@@H](Cc3ccc(Cl)cc3Cl)N2)c1 (racemic) [Compound I-011]	4.86	70 to 79	90 to 100	90 to 100	90 to 100	90 to 100	90 to 100	90 to 100	–	90 to 100	–	–	–	–	–	–	–
COc1cccc(Sc2cnc3ccccc3c2C2=NOC[C@H](Cc3ccc(C)cc3C)N2)c1 (racemic) [Compound I-012]	4.06	–	–	90 to 100	90 to 100	90 to 100	–	70 to 79	–	–	–	–	–	–	–	–	–
FC(F)(F)c1cccc(Sc2nnc(Cl)cc2C2=NOC[C@H](Cc3ccc(Cl)cc3Cl)N2)c1 (racemic) [Compound I-016]	4.86	–	80 to 89	90 to 100	90 to 100	90 to 100	–	70 to 79	–	–	–	–	–	–	–	–	–
Cc1ccc(C[C@@H]2CON=C(c3cc(Cl)nnc3S(=O)(=O)c3ccc(C(F)(F)F)cc3)N2)c(C)c1 (racemic) [Compound I-018]	4.28	–	90 to 100	80 to 89	–	–	–	90 to 100	–	–	–	–	–	–	–	–	–
Cc1ccc(C[C@H]2CON=C(c3c(Sc4cccc(Cl)c4)cnc4ccccc34)N2)c(C)c1 (racemic) [Compound I-024]	4.46	90 to 100	90 to 100	90 to 100	90 to 100	90 to 100	90 to 100	90 to 100	–	–	–	–	–	–	–	–	–
Cc1ccc([C@H]2CON=C(c3c(Sc4cccc(F)c4)nnc4ccccc34)N2)s1 (racemic) [Compound I-042]	3.27	–	–	–	–	–	–	–	90 to 100	90 to 100	70 to 79	90 to 100	90 to 100	90 to 100	90 to 100	90 to 100	90 to 100
Cc1cccc(Sc2nnc3ccccc3c2C2=NOC[C@H](c3ccc(C)s3)N2)c1 (racemic) [Compound I-062]	3.47	–	–	–	–	–	–	–	90 to 100	90 to 100	90 to 100	90 to 100	80 to 89	90 to 100	90 to 100	90 to 100	90 to 100
Cc1cc([C@H]2CON=C(c3c(Sc4ccccc4)nnc(C)c3C)N2)c(C)s1 (racemic) [Compound I-069]	3.03	–	–	–	–	–	–	–	80 to 89	90 to 100	70 to 79	80 to 89	80 to 89	90 to 100	–	90 to 100	90 to 100
Cc1cccc(Sc2nnc(C)c(C)c2C2=NOC[C@H](c3cc(C)sc3C)N2)c1 (racemic) [Compound I-078]	3.33	–	–	–	–	–	–	–	90 to 100	90 to 100	90 to 100	80 to 89	80 to 89	90 to 100	90 to 100	90 to 100	80 to 89
Cc1ccc([C@H]2CON=C(c3c(Sc4cccc(Cl)c4F)nnc4ccccc34)N2)s1 (racemic) [Compound I-108]	3.68	–	–	–	–	–	–	–	90 to 100	90 to 100	90 to 100	90 to 100	90 to 100	90 to 100	90 to 100	90 to 100	90 to 100
Cc1ccc([C@H]2CON=C(c3c(Sc4cccc(C(F)(F)F)c4)nnc4ccccc34)N2)s1 (racemic) [Compound I-109]	3.81	–	–	–	–	–	–	–	90 to 100	90 to 100	90 to 100	90 to 100	70 to 79	90 to 100	90 to 100	90 to 100	80 to 89
Cc1ccc([C@H]2CON=C(c3c(Sc4cccc(Cl)c4)nnc4ccccc34)N2)s1 (racemic) [Compound I-135]	3.61	–	–	–	–	–	–	–	90 to 100	90 to 100	90 to 100	90 to 100	90 to 100	90 to 100	90 to 100	90 to 100	90 to 100
